Measured values published in patent US10093642B2, “Multitarget hedgehog pathway inhibitors and uses thereof” (UNIVERSITA' DEGLI STUDI DI SIENA, priority 2013, dated 2018).

Assays:
[1] = test system: Hh pathway (Gli-RE reporter, activated by SMO agonist SAG); assay: Gli-luciferase reporter assay in SAG-treated NIH 3T3 Shh-light II cells; assay type: cell-based; details: for effect on Hh pathway in luciferase assay: Gli1 gene reporter, pathway activated by SAG, cyclopamine as reference; for activity as Hh inhibitor in luciferase assay (classification): pharmacophore screening hits; for Hh inhibitory activity compared with Glabrescione B: 5 μM, Shh Light II cells, preliminary results
Method: FIG. 4. Effect of active natural compounds identified by the pharmacophore screening in a luciferase assay, where the gene reporter was Gli1 and the pathway was activated by the SAG molecule, a potent SMO agonist. Natural compounds were tested at three different concentrations (1, 10 and 20 μM) and their activity was compared to that of cyclopamine, the natural compound reference inhibitor of the Hedgehog pathway, which was tested at the same doses (1, 10 and 20 μM). On both graphs the activity of cyclopamine is reported as reference standard. (A) cyclopamine, 2,4,5,3′,4′-penta-Ome chalcone and Auriculasin; (B) cyclopamine, Martinoside, Jaceidin, 2,4,5,3′,4′-penta-Ome chalcone, 3,4-di-MDO-2′,4′,5′-tri-Ome dihydrochalcone.
FIG. 6. Dose-response curve of Glabrescione B in SAG (Smoothened Agonist, 200 nM) treated NIH 3T3 Shh-light II (Shh-LII) cells. Treatment time was 48 h and normalization was against Renilla luciferase. Shown is the fold increase of Hh reporter activity compared with cells not treated with SAG.
FIG. 19. Effect of derivatives NT8, NT9, NT10, NT11, NT12, NT13, NT14 and NT15 on the Hedgehog pathway, measured at 5 μM dose in a luciferase assay where the gene reporter was Gli1 and the pathway was activated by the SAG molecule, a potent SMO agonist. […]
To investigate the inhibitory properties of Glabrescione B on Hh signaling, the inventors examined its effects in NIH 3T3 Shh-light II (Shh-LII) cells stably incorporating an Hh-responsive (Gli-RE) reporter, in which induction of the pathway occurs following treatment with the SMO agonist SAG. […] The IC50 in this assay was 0.8 μM.
The ability of Glabrescione B to suppress Hh signaling was assessed in a cellular context of Hh pathway induction. To this end, the antagonist properties of Glabrescione B were determined in Shh Light II (ATCC, cat. # CRL-2795), a murine fibroblast NIH 3T3 cell line. These cells, stably incorporating the Gli-luc reporter and the pRL-TK Renilla reniformis (as described in Taipale, Chen et al. 2000) are a standard tool used to assay Hh pathway activity. The cells that reached the confluence were treated for 48 h with the SMO agonist SAG (200 nM, Alexis, cat. #ALX-270-426-M001) in absence or in presence of Glabrescione B at the amount indicated in FIG. 6. […] Control cells were treated with only DMSO (0.5%, SERVA, cat. #39757.02) Determination of luciferase activities was carried out using the Dual-Luciferase assay according to manufacturer's instructions (Dual-Luciferase® Reporter assay system; Promega, cat. # E1980). All presented data are firefly luciferase activity reported to the Renilla control activity. […] IC50 of 0.8 μM, represents the concentration of Glabrescione B necessary to have fifty percent of inhibition.
Evaluation of the Hh inhibitory activity of these molecules at 5 μM was preliminarily conducted in vitro on Shh Light II cells (see example 2).

[2] = test system: Hh pathway (Gli-RE reporter, activated by SMO agonist SAG); assay: as above; assay type: cell-based; details: Mus musculus, moderately active class
SMO heptahelical domain = SMO heptahelical domain (Homo sapiens, UniProt Q99835); details: cited from earlier work
Chain of SMO heptahelical domain (Q99835 28-787): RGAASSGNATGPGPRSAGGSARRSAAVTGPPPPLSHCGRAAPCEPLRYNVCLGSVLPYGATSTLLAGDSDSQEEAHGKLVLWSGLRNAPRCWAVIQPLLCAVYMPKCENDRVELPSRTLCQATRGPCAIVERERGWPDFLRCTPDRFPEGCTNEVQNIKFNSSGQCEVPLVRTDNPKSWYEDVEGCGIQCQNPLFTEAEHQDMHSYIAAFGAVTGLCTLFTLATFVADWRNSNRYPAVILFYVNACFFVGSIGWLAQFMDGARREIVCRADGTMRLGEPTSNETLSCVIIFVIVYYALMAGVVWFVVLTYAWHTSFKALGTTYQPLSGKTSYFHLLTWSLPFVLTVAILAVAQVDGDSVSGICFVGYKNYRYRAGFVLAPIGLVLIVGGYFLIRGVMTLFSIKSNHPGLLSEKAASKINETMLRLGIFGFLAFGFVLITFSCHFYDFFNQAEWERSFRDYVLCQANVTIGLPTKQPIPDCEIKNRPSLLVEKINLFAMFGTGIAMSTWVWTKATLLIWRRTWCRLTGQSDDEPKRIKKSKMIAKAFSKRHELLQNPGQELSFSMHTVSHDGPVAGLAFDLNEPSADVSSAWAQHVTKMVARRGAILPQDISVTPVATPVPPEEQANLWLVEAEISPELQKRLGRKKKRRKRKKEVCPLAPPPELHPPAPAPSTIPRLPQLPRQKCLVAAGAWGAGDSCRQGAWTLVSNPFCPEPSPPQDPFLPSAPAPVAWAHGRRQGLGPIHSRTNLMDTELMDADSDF

In the case of `COc1ccc(C(=O)C=Cc2c(OC)cc(OC)c(OC)c2OC)cc1OC` [2,3,4,6,3′,4′-hexa-OMe Chalcone], the “effect on Hh pathway in luciferase assay” value [1] is reported as “inhibit the Hh pathway”.
With `COc1cc(OC)c(OC)cc1C=CC(=O)c1ccc(OC)c(OC)c1` [2,4,5,3′,4′-penta-OMe Chalcone] the “effect on Hh pathway in luciferase assay” value [1] was “inhibit the Hh pathway”.
In the case of `COc1cc(OC)c(C(=O)CCc2ccc3c(c2)OCO3)cc1OC` [3,4-di-MDO-2′,4′,5′-tri-OMe dihydrochalcone], the “effect on Hh pathway in luciferase assay” value [1] is reported as “inhibit the Hh pathway”.
For `CC(C)=CCc1c2c(c(O)c3c(=O)c(-c4ccc(O)c(O)c4)coc13)C=CC(C)(C)O2` [Auriculasin], the inhibition at 30 µM [2] was ≤ 30% and the “effect on Hh pathway in luciferase assay” value [1] was “inhibit the Hh pathway”.
For `C[C@@H]1CC[C@]2(C(=O)O)CC[C@]3(C)C(=CC[C@@H]4[C@@]5(C)CC[C@@H](O)[C@](C)(CO)[C@@H]5CC[C@]43C)[C@@H]2[C@]1(C)O` [Barbinervic Acid], the “activity as Hh inhibitor in luciferase assay (classification)” value (from here on “activity as Hh inhibitor”) [1] was “not active”.
For `COc1ccc([C@@H]2CC(=O)c3c(O)cc(O[C@@H]4O[C@H](CO[C@@H]5O[C@@H](C)[C@H](O)[C@@H](O)[C@H]5O)[C@@H](O)[C@H](O)[C@H]4O)cc3O2)cc1O` [Hesperidin], the “activity as Hh inhibitor” value [1] was “not active”.
In the case of `COc1cc(-c2oc3cc(O)c(OC)c(O)c3c(=O)c2OC)ccc1O` [Jaceidin], the “effect on Hh pathway in luciferase assay” value [1] is reported as “inhibit the Hh pathway”.
For `CC(C)=CCc1c(O)ccc(C(=O)C2C(c3c(O)cc(/C=C/c4ccc(O)cc4O)cc3O)C=C(C)CC2c2ccc(O)cc2O)c1O` (stereo not drawn) [Kuwanol-E], the “activity as Hh inhibitor” value [1] was “not active”.
For `COc1ccc(CCO[C@@H]2O[C@H](CO)[C@@H](OC(=O)/C=C/c3ccc(O)c(OC)c3)[C@H](O[C@@H]3O[C@@H](C)[C@H](O)[C@@H](O)[C@H]3O)[C@H]2O)cc1O` [Martinoside], the “effect on Hh pathway in luciferase assay” value [1] was “inhibit the Hh pathway”.
With `O=c1c(O)c(-c2cc(O)c(O)c(O)c2)oc2cc(O)cc(O)c12` [Myricetin] the “activity as Hh inhibitor” value [1] was “not active”.
With `COc1cc(OC)c2c(=O)c(-c3ccc(OC)c(OCC=C(C)C)c3)coc2c1` [NT8, 3-[3′-(3-methyl-but-2-enyloxy)-4′-methoxyphenyl]-5,7-dimethoxy-4H-chromen-4-one] the “Hh inhibitory activity compared with Glabrescione B” value [1] was “more potent than Glabrescione B”.
In the case of `COc1cc(OC)c2c(=O)c(-c3ccc(OC)c(OCc4ccccc4)c3)coc2c1` [NT9, 3-(3′-Benzyloxy-4′-methoxyphenyl)-5,7-dimethoxy-4H-chromen-4-one], the “Hh inhibitory activity compared with Glabrescione B” value [1] is reported as “more potent than Glabrescione B” and the melting point is reported as 126 °C.
In the case of `COc1cc(OC)c2c(=O)c(-c3ccc(OC)c(OCc4ccc(C(F)(F)F)cc4)c3)coc2c1` [NT11, 5,7-Dimethoxy-3-[4-methoxy-3-(4-trifluoromethyl-benzyloxy)-phenyl]-chromen-4-one], the melting point is reported as 128.6 to 129.1 °C.
`COc1cc(OC)c2c(=O)c(-c3ccc(OCC=C(C)C)c(OC)c3)coc2c1` [NT12, 5,7-Dimethoxy-3-[3′-methoxy-4′-(3-methyl-but-2-enyloxy)-phenyl]-chromen-4-one] showed a melting point of 130.7 to 131.8 °C.
Molecule `COc1cc(OC)c2c(=O)c(-c3ccc(OCc4ccccc4)c(OC)c3)coc2c1` [NT13, 3-(4-Benzyloxy-3-methoxy-phenyl)-5,7-dimethoxy-chromen-4-one] has a melting point of 142.8 to 143.7 °C.
Work on `COc1cc(OC)c2c(=O)c(-c3ccc(OCc4ccc(C(F)(F)F)cc4)c(OC)c3)coc2c1` [NT15, 5,7-Dimethoxy-3-[3-methoxy-4-(4-trifluoromethyl-benzyloxy)-phenyl]-chromen-4-one] yielded a melting point of 128.4 to 130.2 °C.
In the case of `C[C@@H]1O[C@@H](O[C@H]2[C@H](Oc3cc(O)c4c(c3)O[C@H](c3ccc(O)cc3)CC4=O)O[C@H](CO)[C@@H](O)[C@@H]2O)[C@H](O)[C@H](O)[C@H]1O` [Naringin], the “activity as Hh inhibitor” value [1] is reported as “not active”.
In the case of `CNC1CCC(N(Cc2cccc(-c3ccncc3)c2)C(=O)c2sc3ccccc3c2Cl)CC1` (stereo not drawn) [SAG], the Kd (SMO heptahelical domain) is listed as 59 nM.
In the case of `CC1=CC2c3c(O)cc(/C=C/c4ccc(O)cc4O)cc3OC3(c4ccc(O)c5c4OC(C)(C)C=C5)Oc4cc(O)ccc4C(C1)C23` (stereo not drawn) [Sorocein-A], the “activity as Hh inhibitor” value [1] is reported as “not active”.
In the case of `CC1=CC2c3c(ccc(C(=O)/C=C/c4ccc(O)cc4O)c3O)OC3(c4ccc(O)c5c4OC(C)(C)C=C5)Oc4cc(O)ccc4C(C1)C23` (stereo not drawn) [Sorocein-B], the “activity as Hh inhibitor” value [1] is reported as “not active”.
For Isosophoranon, the “activity as Hh inhibitor” value [1] was “not active”.
With Veratrin the “activity as Hh inhibitor” value [1] was “not active”.
